The values that follow come from patent publication US11414385B2, “Compounds and methods for treating, detecting, and identifying compounds to treat apicomplexan parasitic diseases” (The University of Chicago, priority 2015, dated 2022).

SMILES strings stand for the structures. “Also recorded” adds a separate entry of the source.

Data set [1] deals with human foreskin fibroblasts (HFF). The experiment in a line: Cytotoxicity assay with WST-1 in HFF. Format: cell-based. The note with it: 10 μM and 50 μM, WST-1. As for the experimental part:
(§1) Toxicity assays were conducted using WST-1 cell proliferation reagent (Roche). HFF were grown on a flat, clear-bottomed, black 96-well plate. Confluent HFF were treated with inhibitory compounds at concentrations equal to those being tested in challenge assays. Compounds were diluted in IMDM-C, and 20 μl were added to each designated well, with triplicates for each condition. A gradient of 2 fold-decreasing concentrations of DMSO in clear IMDM-C was used as a control. The plate was incubated for 72 hours at 37° C. 10 μl of WST-1 reagent (Roche) were added to each well and the cells were incubated for 30 to 60 minutes. Absorbance was read using a fluorometer at 420 nm. A higher degree of color change (and absorbance) indicated mitochondrial activity and cell viability.
as §1, with “(Roche) as described in Fomovska, et. al. (18,19).” for “(Roche).”, “of 10 μM and 50 μM.” for “equal to those being tested in challenge assays.”, “DMSO from 10% to 0%” for “DMSO”, “fluorimeter” for “fluorometer”
For orientation: Tetrazolium dyes change colour on reduction, which living cells bring about.

In data set [2] the test system is Toxoplasma gondii (Pru strain expressing luciferase) tachyzoites. Nature of the data set: Toxoplasma in vivo, IVIS luminescence in mice. The note with it: 5 mg/kg/day IP. On the procedure: IVIS. Mice were infected intraperitoneally with 20×10^3 Toxoplasma gondii (Pru strain expressing luciferase) tachyzoites. Treatment commenced 2 hours later with JAG21 (5 mg/kg) which was dissolved in DMSO and administered intraperitoneally in a total volume of 0.05 ml. Mice were imaged every second day starting on day 4 post infection using a IVIS Spectrum (Caliper Life Sciences) for a 1 minute exposures, with medium binning, 20 minutes post injection with 150 mg/kg of D-luciferin potassium salt solution.

For another data set, the system named is Toxoplasma RPS13 delta. Nature of the data set: RPS13 delta G0 arrested parasite in interferon gamma knockout mice. The note with it: with tafenoquine 3 mg/kg single dose, minus tetracycline. It is filed as in vivo, Toxoplasma gondii. As for the experimental part: RPS13 Δ. This G0 arrested parasite persists in tissue culture for prolonged times in the absence of tetracycline. The parasite (x) was used to infect interferon gamma knockout mice. For the first y days no tetracycline was administered. After that time tetracycline was administered. Mice were observed and at the time they appeared ill or at the termination of the experiment they were euthanized and tissues fixed in formalin and stained with hematoxylin and eosin or immunoperoxidase stained and parasite burden was assessed.

The next data set deals with hERG (Homo sapiens, UniProt Q12809). Nature of the data set: hERG profile.
Data set [3] is described as follows: Cytotoxicity assay with WST-1 in HFF. It is filed as cell-based. The note with it: human, human foreskin fibroblasts (HFF); read-out: HFF Toxicity CC50. As for the experimental part: as §1
as §1, with “(Roche) as described in Fomovska, et. al. (18,19).” for “(Roche).”, “of 10 μM and 50 μM.” for “equal to those being tested in challenge assays.”, “DMSO from 10% to 0%” for “DMSO”, “fluorimeter” for “fluorometer”

The next data set deals with MDCK-MDR1 cells. The experiment in a line: in vitro. It is filed as in vitro ADME. The following applies: dog, MDCK-MDR1.
Data set [4] deals with S. cerevisiae wild type parental AD1-9 strain. Nature of the data set: Yeast growth inhibition on glycerol medium, wild type. It is filed as cell-based, Saccharomyces cerevisiae. The following applies: 1 mM, 100, 5 and 1 μM. As for the experimental part:
(§2) Three S. cerevisiae strains were used: M221Q and M221F cytochrome b mutants and wild type. They share the same nuclear genetic background deriving from AD1-9 (kindly given by M. Ghislain, UCL, Belgium). AD1-9 harbors multiple deletions in the ABC transporter genes that render the strain more sensitive to drugs than standard yeast strains^S65.
Protocol: Yeast strains were grown over 48 hours at 33° C. in liquid YPG medium [1% yeast extract, 2% (wt/vol) peptone, and 3% (vol/vol) glycerol). Cultures were diluted to an OD600 of 0.05 and grown for 2 hrs. Cultures were then combined with YPG containing 6% melted agar for a total volume of 15-20 mL and poured onto OmniTray single-well rectangular plates that measured 86 mm by 128 mm (ThermoScientific). Filter paper disks (7 mm diameter, […]) were placed onto the cooled agar plates. […] A single disk with DMSO on each plate was used as a control. Plates were incubated at 33° C. Images were obtained after 4 days using GelDoc XR Imaging System (BioRad) and Quantity One software. Drug effect was assessed by the presence and size of a zone of inhibition around the disks.

Data set [5] concerns S. cerevisiae M221Q and M221F cytochrome b mutants. Nature of the data set: Yeast growth inhibition, cytochrome b Qi mutants. Format: cell-based, Saccharomyces cerevisiae.
From the text: as §2
Cytochrome b mutant M221F was generated by mitochondrial transformation as described. M221 Q was selected as suppressor from a respiratory deficient mutant. Analysis of revertants from respiratory deficient mutants within the center N of cytochrome b in Saccharomyces cerevisiae.
Protocol: Yeast strains were grown over 48 hours at 33° C. in liquid YPG medium [1% yeast extract, 2% (wt/vol) peptone, and 3% (vol/vol) glycerol). Cultures were diluted to an OD600 of 0.05 and grown for 2 hrs. Cultures were then combined with YPG containing 6% melted agar for a total volume of 15-20 mL and poured onto OmniTray single-well rectangular plates that measured 86 mm by 128 mm (ThermoScientific). Filter paper disks (7 mm diameter, […]) were placed onto the cooled agar plates. […] Images were obtained after 4 days using GelDoc XR Imaging System (BioRad) and Quantity One software. Drug effect was assessed by the presence and size of a zone of inhibition around the disks.

The test system of data set [6] is T. gondii Me49 strain cysts. Nature of the data set: Established brain cysts in mice (chronic infection). It is filed as in vivo, Toxoplasma gondii. The following applies: cysts established >2 months earlier, 12.5-25 mg/kg for 17 days. As for the experimental part:
The ability of compounds to reduce cyst burden and prevent encephalitis induced by the Type II strain of T. gondii were tested. Encephalitis was assessed by histological analyses and parasite burdens evaluated by quantitation of cysts.
The oocyst challenge model is ideal for this study because oocysts can be diluted at one time and stored at 4° C. for 12 months without loss of infectivity titer. For treatment of chronic infection there were 5 to 10 mice per group treated 2 months after infection was established by compound in DMSO for parenteral administration administered once per day. Treatment was for 17 days.

Chain of hERG (Q12809 whole entry): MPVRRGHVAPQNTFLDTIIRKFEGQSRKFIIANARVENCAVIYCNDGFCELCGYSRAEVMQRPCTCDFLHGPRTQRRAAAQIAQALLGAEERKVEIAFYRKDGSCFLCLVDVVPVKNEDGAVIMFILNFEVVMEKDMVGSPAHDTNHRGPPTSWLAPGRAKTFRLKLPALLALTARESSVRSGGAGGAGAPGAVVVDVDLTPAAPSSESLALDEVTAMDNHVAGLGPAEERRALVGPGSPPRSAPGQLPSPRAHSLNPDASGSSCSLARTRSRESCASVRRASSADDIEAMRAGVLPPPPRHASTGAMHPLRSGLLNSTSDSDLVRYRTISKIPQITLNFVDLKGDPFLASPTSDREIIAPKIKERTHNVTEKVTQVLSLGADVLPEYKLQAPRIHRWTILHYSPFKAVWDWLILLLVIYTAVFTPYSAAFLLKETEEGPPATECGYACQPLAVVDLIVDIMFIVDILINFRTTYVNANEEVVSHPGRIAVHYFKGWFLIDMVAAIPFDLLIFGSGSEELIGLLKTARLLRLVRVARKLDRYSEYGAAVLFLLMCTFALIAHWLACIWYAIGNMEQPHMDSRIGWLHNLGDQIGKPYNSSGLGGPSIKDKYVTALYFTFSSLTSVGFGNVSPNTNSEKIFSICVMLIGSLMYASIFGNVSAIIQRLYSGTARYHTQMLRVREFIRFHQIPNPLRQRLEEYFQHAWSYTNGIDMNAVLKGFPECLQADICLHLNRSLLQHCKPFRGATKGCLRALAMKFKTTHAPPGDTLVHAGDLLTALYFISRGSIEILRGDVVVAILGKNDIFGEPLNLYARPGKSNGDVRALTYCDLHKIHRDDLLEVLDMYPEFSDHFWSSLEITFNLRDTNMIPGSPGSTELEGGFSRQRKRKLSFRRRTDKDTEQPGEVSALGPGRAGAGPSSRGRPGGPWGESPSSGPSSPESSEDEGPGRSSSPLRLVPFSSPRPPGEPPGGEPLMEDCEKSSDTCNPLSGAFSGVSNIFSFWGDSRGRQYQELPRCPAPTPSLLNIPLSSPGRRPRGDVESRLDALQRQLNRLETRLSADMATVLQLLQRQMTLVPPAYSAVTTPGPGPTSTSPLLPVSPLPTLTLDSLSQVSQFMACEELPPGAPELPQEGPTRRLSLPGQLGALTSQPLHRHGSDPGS

Regarding `Cc1[nH]c2c(c(=O)c1-c1ccc(Oc3ccc(OC(F)(F)F)cc3)cc1)CCCC2` [JAG21, 2-methyl-3-(4-(4-(trifluoromethoxy)phenoxy)phenyl)-5,6,7,8-tetrahydroquinolin-4(1H)-one], the “toxicity to human foreskin fibroblasts” value in data set [1] was “no toxicity”. Further, the “effect on T. gondii tachyzoites in mice” value in [2] is “protects against Toxoplasma gondii tachyzoites; also recorded: cleared; also recorded: eliminates T. gondii tachyzoites”. Also, the “protection against RPS13 delta in combination with tafenoquine” value in the data set on Toxoplasma RPS13 delta is given as “both needed to contain RPS 13Δ; also recorded: protect against a G0 arrested parasite; also recorded: superior to either alone”. Further, at hERG, the “hERG profile” value was “clean”.
For `Cc1[nH]c2c(c(=O)c1-c1ccc(Oc3ccccc3)cc1)CCCC2` [MJM170], the CC50 (commonly the concentration that lowers cell viability or growth by half) at 72 h in data set [3] is 20 µM. The “MDCK-MDR1 Efflux Ratio” value in the data set on MDCK-MDR1 cells amounted to 1.23. The “growth inhibition of wild type yeast” value in data set [4] is “effective”. Besides, the “growth inhibition of M221Q / M221F yeast” value in data set [5] is “resistant”. For the same compound, the entries for the “effect on numbers of Me49 strain cysts in mice” value in data set [6] and in [6] (listed as MJM 170) were “modestly reduced numbers” and “reduces cysts”, respectively.
